Consider 16 molecules from PubChem BioAssay (NCI).

Some test systems named below: SW-620 colon; LOX IMVI melanoma; UACC-257 melanoma; HS 578T breast; HCT-15 colon; SR leukemia; T-47D breast; HL-60(TB) leukemia; HT29 colon.
Assay in all cases: NCI tumour cell line growth inhibition, 48 h

Molecules are shown by their SMILES. “And” between values parts separate entries of the source, which are not always exact repeats. Identical values can stand only once.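 Step 1: Grow cells in 96-well plates. Step 2: Expose to compound for 48 hours at 5 concentrations. Step 3: Interpolate endpoints linearly; if unreached, use highest concentration. GI50 is the concentration that inhibits growth by half. TGI marks complete inhibition of growth.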 Bounds are passed on as bounds.

On to `Nc1nnc2cc(Cl)ccc2n1`, for which the GI50 in the assay with SW-620 colon is above 100 µM; in the assay with LOX IMVI melanoma it was above 100 µM; in the assay with UACC-257 melanoma, above 100 µM; in the assay on HS 578T breast, 24.6 µM; in the assay on HCT-15 colon, above 100 µM; in the assay on SR leukemia, above 100 µM. Further, in the assay with T-47D breast, the GI50 is above 100 µM. Further, the TGI with SW-620 colon, in the assay with LOX IMVI melanoma, in the assay on UACC-257 melanoma, in the assay on HS 578T breast, with HCT-15 colon and in the assay on SR leukemia was above 100 µM each time. The molecule further displayed a TGI in the assay with T-47D breast above 100 µM.

For the molecule `C=C=C(CC)C(C(=O)OC)N(CC)CC` (stereo unspecified), the TGI in the assay on SW-620 colon, with LOX IMVI melanoma, with HL-60(TB) leukemia, with UACC-257 melanoma, with HT29 colon and in the assay with SR leukemia was above 100 µM throughout.

As for `COCC(=O)CP(=O)(OC)OC`, the TGI in the assay with SW-620 colon, in the assay on LOX IMVI melanoma, with HL-60(TB) leukemia, with UACC-257 melanoma, with HCT-15 colon and in the assay with HT29 colon was above 100 µM throughout.

Turning to `COc1ccc2c(c1OC)C1=C(C2=O)c2cc3c(cc2CCN1)OCO3`, the TGI in the assay with SW-620 colon was 47.5 µM; with LOX IMVI melanoma it was 61.1 µM; with HL-60(TB) leukemia it was 53.9 µM; in the assay on UACC-257 melanoma, above 100 µM; in the assay on HCT-15 colon, above 100 µM; with HT29 colon, 43.3 µM. The molecule further yielded a TGI in the assay on SR leukemia of 55 µM.

In the case of `CC(=O)OC1CC2C(C)(C)C(=O)C=C[C@]2(C)C2CCC3(C)C(c4ccoc4)C(=O)[C@H]4O[C@]43[C@]12C` (stereo partly specified), the TGI in the assay with SW-620 colon was 59.2 µM; in the assay with LOX IMVI melanoma, 42.6 µM; with HL-60(TB) leukemia, 42.3 µM; in the assay with HCT-15 colon, 37.7 µM.

Take `Cc1c(C(=O)NCCO)[n+](=O)c2cc(Cl)ccc2n1[O-]`: the TGI in the assay with SW-620 colon, with LOX IMVI melanoma, in the assay on HL-60(TB) leukemia, in the assay with UACC-257 melanoma, in the assay with HCT-15 colon and with HT29 colon was above 100 µM each time. In the assay with SR leukemia, the TGI is above 100 µM.

With `CN1NC2(CCCCC2)ON=C1c1ccccc1`, the TGI in the assay on SW-620 colon, in the assay on LOX IMVI melanoma, in the assay on HL-60(TB) leukemia, in the assay on UACC-257 melanoma, with HCT-15 colon and with HT29 colon was above 100 µM in each case. The molecule further came in with a TGI in the assay with SR leukemia above 100 µM.

Turning to `O=c1cc2ccccc2nn1Cc1ccccc1Cl`, the TGI in the assay on SW-620 colon, in the assay on LOX IMVI melanoma, in the assay on UACC-257 melanoma, in the assay on HCT-15 colon and in the assay with HT29 colon was above 100 µM throughout.

Consider `O=C(O)/C(=C/c1c(O)ccc2ccccc12)c1csc(-c2nc(/C(=C\c3c(O)ccc4ccccc34)C(=O)O)cs2)n1`, for which the TGI was determined as 59 µM in the assay with SW-620 colon; 43.4 µM in the assay on LOX IMVI melanoma; 26.4 µM in the assay on HL-60(TB) leukemia; 40.9 µM with UACC-257 melanoma; 39 µM in the assay on HCT-15 colon; 52.2 µM in the assay on HT29 colon.

Regarding `C1CCN(c2nsc(N3CCCCC3)n2)CC1`, the TGI in the assay with SW-620 colon, in the assay on LOX IMVI melanoma, in the assay on HL-60(TB) leukemia, in the assay with UACC-257 melanoma, with HCT-15 colon and in the assay with HT29 colon was above 100 µM in each case. In the assay on SR leukemia, the TGI was above 100 µM.

Turning to `CO/C1=C\C(C)=C\C(C)C(O)C(C)C/C(C)=C/C=C/C(OC)C(C(C)C(O)C(C)C2(O)CC(O)C(C)C(C(C)C)O2)OC1=O` (stereo unspecified), the TGI in the assay on LOX IMVI melanoma was 2.64e-05 µM; in the assay on HL-60(TB) leukemia, 0.0136 µM; in the assay on UACC-257 melanoma it was 0.0699 µM and 0.0653 µM; in the assay on HCT-15 colon, 11.2 µM. Moreover, the GI50 in the assay with UACC-257 melanoma was 0.0248 µM.

Consider `CCOC(=O)C1(Cc2ccccc2)CCCCCN1` (stereo unspecified), for which the TGI with SW-620 colon, with LOX IMVI melanoma, in the assay with HL-60(TB) leukemia, in the assay on HCT-15 colon and in the assay with HT29 colon was above 100 µM each time.

On to `CC(=O)O[C@H]1CC[C@@]2(C)C(=CC[C@H]3[C@@H]4C/C(=C\c5cccc(OCCN6CCOCC6)c5)[C@H](OC(C)=O)[C@@]4(C)CC[C@@H]32)C1`, for which the GI50 is 4.87 µM in the assay with SW-620 colon; 5.94 µM in the assay on LOX IMVI melanoma; 3.61 µM in the assay on HL-60(TB) leukemia; 2.79 µM in the assay with UACC-257 melanoma; 3.07 µM with HS 578T breast; 2.95 µM in the assay on HCT-15 colon. Moreover, the figures for the GI50 with HT29 colon, in the assay on SR leukemia and in the assay on T-47D breast were 2.16 µM, 5.47 µM and 4.18 µM, respectively. The TGI in the assay on SW-620 colon worked out at 15.7 µM; in the assay with LOX IMVI melanoma, 18.4 µM; in the assay with HL-60(TB) leukemia, 14.6 µM; in the assay with UACC-257 melanoma, 5.04 µM; with HS 578T breast it was 10.9 µM; with HCT-15 colon, 11.5 µM. The values for the TGI in the assay on HT29 colon, in the assay on SR leukemia and with T-47D breast were 5.11 µM, 18.6 µM and 22.5 µM, respectively.

`CCNC(=O)C#CC(=O)NCC`: the GI50 in the assay on SW-620 colon, in the assay on LOX IMVI melanoma, in the assay on HL-60(TB) leukemia, with UACC-257 melanoma, in the assay with HCT-15 colon and in the assay with HT29 colon was above 10 µM throughout. In the assay on SR leukemia, the GI50 is above 10 µM. Moreover, the TGI with SW-620 colon was above 87.7 µM; in the assay with LOX IMVI melanoma, above 100 µM; in the assay with HL-60(TB) leukemia it was above 53.9 µM; with UACC-257 melanoma, above 100 µM; in the assay with HCT-15 colon it was above 61.4 µM; in the assay with HT29 colon, above 100 µM. In addition, in the assay on SR leukemia, the TGI is above 61.4 µM.

With `CCC(=O)C(C)C1=Nc2nnc(CCCCCCCc3nnc4n3C(=O)C(C(C)C(=O)CC)=N4)n2C1=O` (stereo unspecified), the TGI with SW-620 colon, in the assay with LOX IMVI melanoma, in the assay on HL-60(TB) leukemia, with UACC-257 melanoma, with HCT-15 colon and with HT29 colon was above 100 µM in each case. In the assay with SR leukemia, this molecule came in with a TGI above 100 µM.

On to `CC/C=C\C[C@H](O)C/C=C1/C(=O)C=C[C@@H]1C/C=C\CCCC(=O)N(C)C`, for which the GI50 was 0.851 µM in the assay on SW-620 colon; 0.356 µM in the assay with LOX IMVI melanoma; 2.27 µM in the assay with HL-60(TB) leukemia; 2.37 µM in the assay on UACC-257 melanoma; 4.29 µM in the assay on HS 578T breast; 1.29 µM in the assay with HCT-15 colon. The values for the GI50 in the assay on HT29 colon, with SR leukemia and in the assay with T-47D breast were 0.853 µM, 0.376 µM and 2.57 µM, respectively. Besides, the TGI in the assay on SW-620 colon was 6.16 µM; in the assay with LOX IMVI melanoma it was 1.54 µM; in the assay on HL-60(TB) leukemia, 13.6 µM; in the assay with UACC-257 melanoma it was 7.31 µM; with HS 578T breast it was 27.6 µM; in the assay on HCT-15 colon it was 5.87 µM. In addition, the TGI worked out at 2.97 µM in the assay with HT29 colon, 12.3 µM in the assay with SR leukemia and 11.8 µM with T-47D breast.
